# Laboratory results reported in patent publication US8003137B2, “Extracts of Aristolochia paucinervis pomel and uses thereof” (FasTrack Pharmaceuticals, Inc., priority 2008, dated 2011).
# Test system: human red blood cells
# Experiment: Hemolytic activity on heparinized whole blood
# Type: cell-based
# Settings: 0- to 14-day incubation, all dilutions examined
# Procedure: The hemolytic activity of A. paucinervis pomel extract on blood cells was examined, and compared with the ability of Triton-X to lyse these cells.
# To perform these studies, heparinized-whole blood was incubated with dilutions of Triton-X-100 (0-1%) or 5× (4.4 mg/ml) A. paucinervis pomel extract for 40 minutes at room temperature. Plasma was collected after centrifugation at 1200×g for 5 minutes and diluted 1/20 with DPBS. The absorbance at 560 nm of 100 μl of each diluted plasma sample was measured. In a second experiment, the effects of incubating whole blood with dilutions of 5× (4.4 mg/ml) A. paucinervis pomel extract for 0, 3, 7 and 14 days was assessed. Experimental results are shown in FIG. 5A (cells treated with A. paucinervis pomel extract) and FIG. 5B (cells treated with Triton-X-100).
substance,measurement,value
Triton-X,hemolytic activity on blood cells,toxic to blood cells
